Data: patent US9579316B2, “Salts of 2-amino-1-hydroxyethyl-8-hydroxyquinolin-2(1H)-one derivatives having both muscarinic receptor antagonist and β2 adrenergic receptor agonist activities” (priority 2013, dated 2017)

Assays:
[1] = Thermogravimetric (TG) analysis; type: physicochemical; settings: for TG analysis: temperature until which no significant changes are observed (then loss of mass / decomposition): heated at 10° C./min between 30 and 300° C., nitrogen flow
Procedure: Thermogravimetric analyses were recorded in a Mettler Toledo SDTA851e. Samples of 1-3 mg were weighted (using a microscale MX5, Mettler) 40 μL aluminium crucibles with a pinhole lid, and were heated at 10° C./min between 30 and 300° C., under nitrogen flow (50 mL/min). Data collection and evaluation was done with software STARe.

[2] = Differential scanning calorimetry (DSC) analysis; type: physicochemical
Procedure: DSC analyses were recorded either in a Mettler Toledo DSC822e or using a DSC-821 Mettler-Toledo, serial number 5117423874. In the case of a Mettler Toledo DSC822e equipment, samples of 1-3 mg were weighted (using a microscale MX5, Mettler) into 40 μL aluminium crucibles with a pinhole lid, and were heated, under nitrogen flow (50 mL/min), from 30 to 300° C. at a heating rate of 10° C./min. Data collection and evaluation was done with software STARe. In case of a DSC-821 Mettler-Toledo, serial number 5117423874 equipment, samples were weighed into an aluminium pan, an aluminium pinhole lid placed on top of the sample and compressed with a brass rod. Samples were equilibrated at 25° C. and heated at 10° C./min to 300° C. The instrument was calibrated using indium and zinc standards.

| Structure (SMILES) | TG analysis: temperature until which no significant changes are observed (then loss of mass / decomposition) [1] | hygroscopicity (no solvent/water release in TG) ([1]; no change prior to 140° C., in particular at 80-100° C.) | stability (no conversion into other polymorphs, no decomposition below the DSC endotherm) [2] | DSC endothermic curve onset (possible decomposition of the salt) ([2]; heating rate 10° C./min) | DSC endothermic curve maximum (possible fusion/decomposition of the salt) ([2]; heating rate 10° C./min) |
| --- | --- | --- | --- | --- | --- |
| CN(CCCn1nnc2cc(CNC[C@H](O)c3ccc(O)c4[nH]c(=O)ccc34)ccc21)[C@H]1CC[C@H](OC(=O)C(O)(c2cccs2)c2cccs2)CC1.O=C1NS(=O)(=O)c2ccccc21 (relative stereo) [Example 1, trans-4-[{3-[5-({[(2R)-2-hydroxy-2-(8-hydroxy-2-oxo-1,2-dihydroquinolin-5-yl)ethyl]amino}methyl)-1H-1,2,3-benzotriazole-1-yl]propyl}(methyl)-amino]cyclohexyl hydroxy(di-2-thienyl)acetate saccharinate] | 130-140 °C | lack of hygroscopicity | high stability | about 170 °C |  |
| CN(CCCn1c(=O)sc2cc(CNC[C@H](O)c3ccc(O)c4[nH]c(=O)ccc34)ccc21)[C@H]1CC[C@H](OC(=O)C(O)(c2cccs2)c2cccs2)CC1.O=C(O)/C=C/C(=O)O [Example 2, trans-4-[{3-[6-({[(2R)-2-hydroxy-2-(8-hydroxy-2-oxo-1,2-dihydroquinolin-5-yl)ethyl]amino}methyl)-2-oxo-1,3-benzothiazole-3(2H)-yl]propyl}(methyl)amino]cyclohexyl hydroxy(di-2-thienyl)acetate fumarate] | about 140 °C |  | high stability |  | 134 °C |
